Data on four compounds can be found in US9783527B2, “Indazole ureas and method of use” (AbbVie Inc., priority 2014, dated 2017).

One assay addresses human Nav1.8 (Homo sapiens (Human), UniProt Q9Y5Y9). In words: FRET-based membrane potential assay, recombinant human sodium channel Nav1.8. Format: cell-based. To be noted: HEK293 cells stably expressing recombinant human Nav1.8; depolarization with veratridine (EC80) + scorpion venom. Put shortly:
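HEK293 cells stably expressing Nav1.8 were loaded with CC2-DMPE/DiSBAC2(3) FRET voltage dyes. Compounds were added 3 min before depolarization with EC80 veratridine plus scorpion venom. The F440-480/F565-625 ratio was read on FLIPR; IC50 came from four-parameter Hill fits.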

Assay [1] deals with MIA-induced osteoarthritic pain in rats. Nature of the assay: Osteoarthritic (OA) pain induced by sodium monoiodoacetate (MIA), hind limb grip force. Format: in vivo, rat. The following applies: male Sprague Dawley rats, grip force 20 days after MIA injection.

pIC50: −log10 of the molar value.

Chain of human Nav1.8 (Q9Y5Y9 whole entry): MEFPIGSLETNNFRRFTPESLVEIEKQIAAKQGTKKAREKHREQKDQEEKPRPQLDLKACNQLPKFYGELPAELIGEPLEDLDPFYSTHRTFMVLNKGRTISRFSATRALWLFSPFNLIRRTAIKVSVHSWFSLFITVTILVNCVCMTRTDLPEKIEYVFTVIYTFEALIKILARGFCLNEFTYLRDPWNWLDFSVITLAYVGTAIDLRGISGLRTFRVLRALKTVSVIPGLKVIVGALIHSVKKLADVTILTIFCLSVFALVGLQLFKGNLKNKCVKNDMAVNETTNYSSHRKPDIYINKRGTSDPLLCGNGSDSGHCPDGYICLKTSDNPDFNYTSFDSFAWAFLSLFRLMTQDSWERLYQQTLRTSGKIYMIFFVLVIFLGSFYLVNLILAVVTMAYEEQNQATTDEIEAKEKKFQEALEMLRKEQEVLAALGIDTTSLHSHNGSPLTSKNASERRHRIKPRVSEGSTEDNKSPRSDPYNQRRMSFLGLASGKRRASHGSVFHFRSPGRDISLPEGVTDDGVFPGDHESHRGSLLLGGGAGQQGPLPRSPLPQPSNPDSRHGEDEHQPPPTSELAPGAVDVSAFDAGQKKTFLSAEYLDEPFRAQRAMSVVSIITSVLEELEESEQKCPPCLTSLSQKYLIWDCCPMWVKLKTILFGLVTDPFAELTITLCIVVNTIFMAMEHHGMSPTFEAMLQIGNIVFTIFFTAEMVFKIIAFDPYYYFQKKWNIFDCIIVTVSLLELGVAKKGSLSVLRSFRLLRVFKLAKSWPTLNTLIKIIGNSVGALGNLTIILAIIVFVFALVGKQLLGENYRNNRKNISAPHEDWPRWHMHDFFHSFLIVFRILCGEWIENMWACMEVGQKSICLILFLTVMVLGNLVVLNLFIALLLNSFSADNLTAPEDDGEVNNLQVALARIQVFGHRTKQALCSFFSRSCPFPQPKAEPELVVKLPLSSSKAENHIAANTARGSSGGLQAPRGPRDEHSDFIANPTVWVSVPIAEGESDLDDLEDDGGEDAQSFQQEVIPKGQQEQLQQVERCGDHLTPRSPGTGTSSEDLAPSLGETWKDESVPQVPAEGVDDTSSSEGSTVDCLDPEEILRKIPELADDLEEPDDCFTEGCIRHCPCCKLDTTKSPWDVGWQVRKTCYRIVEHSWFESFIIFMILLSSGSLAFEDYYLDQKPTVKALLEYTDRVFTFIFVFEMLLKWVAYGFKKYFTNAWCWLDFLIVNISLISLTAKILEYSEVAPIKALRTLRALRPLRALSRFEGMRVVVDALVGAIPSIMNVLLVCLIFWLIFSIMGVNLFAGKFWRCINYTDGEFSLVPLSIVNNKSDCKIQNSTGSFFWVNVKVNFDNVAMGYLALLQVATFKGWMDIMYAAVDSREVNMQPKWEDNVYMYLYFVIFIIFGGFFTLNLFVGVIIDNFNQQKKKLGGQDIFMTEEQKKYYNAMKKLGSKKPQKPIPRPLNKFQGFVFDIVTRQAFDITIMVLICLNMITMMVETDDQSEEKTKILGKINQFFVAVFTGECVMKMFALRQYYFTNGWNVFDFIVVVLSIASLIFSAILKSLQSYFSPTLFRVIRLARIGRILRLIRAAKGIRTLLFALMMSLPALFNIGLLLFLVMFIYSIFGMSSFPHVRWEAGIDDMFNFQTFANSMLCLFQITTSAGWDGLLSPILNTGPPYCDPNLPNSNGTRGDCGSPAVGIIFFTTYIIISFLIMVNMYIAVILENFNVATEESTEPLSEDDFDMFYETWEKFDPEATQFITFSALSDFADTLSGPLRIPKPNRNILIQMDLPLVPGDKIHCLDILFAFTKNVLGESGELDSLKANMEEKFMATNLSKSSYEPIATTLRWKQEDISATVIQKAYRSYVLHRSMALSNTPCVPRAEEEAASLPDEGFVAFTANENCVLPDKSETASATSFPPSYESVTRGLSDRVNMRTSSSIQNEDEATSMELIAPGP

`Cc1noc(C(C)N2CCN(c3cccc4c3cnn4-c3ccccc3F)C2=O)n1` (racemic) [Example 46, 1-[1-(2-fluorophenyl)-1H-indazol-4-yl]-3-[1-(3-methyl-1,2,4-oxadiazol-5-yl)ethyl]imidazolidin-2-one]: the pIC50 on human Nav1.8 was 5.06. Besides, the “OA MPE (%)” value in assay [1] (OA dose 30 mg/kg) was 69%.
Consider `C[C@H]1CCCN1C(=O)CN1CCN(c2cccc3c2cnn3-c2ccccc2F)C1=O` [Example 15, 1-[1-(2-fluorophenyl)-1H-indazol-4-yl]-3-{2-[(2S)-2-methylpyrrolidin-1-yl]-2-oxoethyl}imidazolidin-2-one], for which the negative logarithm of the IC50 (pIC50) at human Nav1.8 is 5.74. In addition, in assay [1] (OA dose 30 mg/kg), the “OA MPE (%)” value amounted to 68%.
Regarding `Cc1noc(C)c1CN1CCN(c2cccc3c2cnn3-c2ccccc2F)C1=O` [Example 27, 1-[(3,5-dimethyl-1,2-oxazol-4-yl)methyl]-3-[1-(2-fluorophenyl)-1H-indazol-4-yl]imidazolidin-2-one], the negative-log IC50 (pIC50) on human Nav1.8 was 5.98. In assay [1] (OA dose 10 mg/kg), the “OA MPE (%)” value is listed as 57%.
`O=C(CN1CCN(c2cccc3c2cnn3-c2ccccc2F)C1=O)N[C@@H]1CCOC1` [Example 55, 2-{3-[1-(2-fluorophenyl)-1H-indazol-4-yl]-2-oxoimidazolidin-1-yl}-N-[(3R)-tetrahydrofuran-3-yl]acetamide]: the negative-log IC50 (pIC50) on human Nav1.8 was 5.28. Moreover, the “OA MPE (%)” value in assay [1] (OA dose 30 mg/kg) is given as 66%.
